Data taken from patent US9938272B2, “Hydrazine compound as blood coagulation factor Xa inhibitor” (NORTH CHINA PHARMACEUTICAL COMPANY., LTD., priority 2014, dated 2018).

How the values were obtained:
Format in all cases: biochemical
human Factor Xa = human Factor Xa (Homo sapiens (Human), UniProt P00742); experiment: Human factor Xa chromogenic assay; settings: substrate S-2222, read-out: hfXa Ki
rat Factor Xa = rat Factor Xa (Rattus norvegicus (Rat), UniProt Q63207); experiment: Rat factor Xa chromogenic assay; settings: substrate S-2222, read-out: rfXa Ki
Sequence of rat Factor Xa (Q63207 232-482): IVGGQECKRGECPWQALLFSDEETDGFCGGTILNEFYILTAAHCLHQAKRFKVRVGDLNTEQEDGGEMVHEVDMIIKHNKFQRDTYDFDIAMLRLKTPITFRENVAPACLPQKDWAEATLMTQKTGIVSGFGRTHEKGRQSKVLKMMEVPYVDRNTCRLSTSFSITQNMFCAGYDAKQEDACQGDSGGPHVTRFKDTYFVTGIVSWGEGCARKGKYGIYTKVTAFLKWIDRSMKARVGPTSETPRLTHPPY
Sequence of rat Factor Xa (Q63207 41-180): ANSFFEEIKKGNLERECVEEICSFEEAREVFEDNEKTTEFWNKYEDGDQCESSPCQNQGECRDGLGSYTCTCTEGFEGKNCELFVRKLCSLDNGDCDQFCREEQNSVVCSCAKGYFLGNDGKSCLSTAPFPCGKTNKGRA

human trypsin = human trypsin (Homo sapiens, UniProt P07477); experiment: Human trypsin assay; settings: substrate S-2222
human thrombin = human thrombin (Homo sapiens (Human), UniProt P00734); experiment: Human thrombin assay; settings: substrate S-2238
prothrombinase = prothrombinase (Homo sapiens (Human), UniProt P00742); experiment: Prothrombinase assay (thrombin generation); settings: human factor Xa with human platelets, prothrombin, substrate S-2238
Sequence of prothrombinase (P00742 235-488): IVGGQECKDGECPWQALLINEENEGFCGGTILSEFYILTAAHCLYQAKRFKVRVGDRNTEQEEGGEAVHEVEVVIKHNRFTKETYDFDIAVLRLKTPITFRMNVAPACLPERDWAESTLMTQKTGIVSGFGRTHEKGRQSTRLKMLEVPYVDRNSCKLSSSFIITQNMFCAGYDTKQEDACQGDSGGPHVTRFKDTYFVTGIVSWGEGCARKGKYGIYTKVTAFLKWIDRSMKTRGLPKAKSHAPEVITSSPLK
Sequence of prothrombinase (P00742 41-179): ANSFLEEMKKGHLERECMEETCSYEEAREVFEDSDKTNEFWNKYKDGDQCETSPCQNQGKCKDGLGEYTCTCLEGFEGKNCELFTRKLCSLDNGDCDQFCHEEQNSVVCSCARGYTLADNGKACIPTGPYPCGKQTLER
Sequence of prothrombinase (P12259 29-737 partner): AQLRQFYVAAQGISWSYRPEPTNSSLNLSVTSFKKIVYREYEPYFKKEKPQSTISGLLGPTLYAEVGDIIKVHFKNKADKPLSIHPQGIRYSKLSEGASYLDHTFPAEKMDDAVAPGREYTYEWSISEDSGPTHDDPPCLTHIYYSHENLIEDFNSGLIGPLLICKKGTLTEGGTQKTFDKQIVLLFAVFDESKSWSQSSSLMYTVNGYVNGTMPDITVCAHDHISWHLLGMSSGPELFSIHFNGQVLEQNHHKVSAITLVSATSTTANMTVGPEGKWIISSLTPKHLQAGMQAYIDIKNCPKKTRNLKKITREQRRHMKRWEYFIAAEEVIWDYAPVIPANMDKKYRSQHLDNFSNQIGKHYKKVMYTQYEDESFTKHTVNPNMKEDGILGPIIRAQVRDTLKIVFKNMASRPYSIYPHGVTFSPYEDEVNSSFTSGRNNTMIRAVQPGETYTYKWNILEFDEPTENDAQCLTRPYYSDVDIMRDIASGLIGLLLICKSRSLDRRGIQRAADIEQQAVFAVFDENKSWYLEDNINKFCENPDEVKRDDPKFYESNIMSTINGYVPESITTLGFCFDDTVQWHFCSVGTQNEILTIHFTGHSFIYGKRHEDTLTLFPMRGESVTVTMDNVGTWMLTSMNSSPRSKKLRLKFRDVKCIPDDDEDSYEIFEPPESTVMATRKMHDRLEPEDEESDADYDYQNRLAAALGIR
Sequence of prothrombinase (P12259 1574-2224 partner): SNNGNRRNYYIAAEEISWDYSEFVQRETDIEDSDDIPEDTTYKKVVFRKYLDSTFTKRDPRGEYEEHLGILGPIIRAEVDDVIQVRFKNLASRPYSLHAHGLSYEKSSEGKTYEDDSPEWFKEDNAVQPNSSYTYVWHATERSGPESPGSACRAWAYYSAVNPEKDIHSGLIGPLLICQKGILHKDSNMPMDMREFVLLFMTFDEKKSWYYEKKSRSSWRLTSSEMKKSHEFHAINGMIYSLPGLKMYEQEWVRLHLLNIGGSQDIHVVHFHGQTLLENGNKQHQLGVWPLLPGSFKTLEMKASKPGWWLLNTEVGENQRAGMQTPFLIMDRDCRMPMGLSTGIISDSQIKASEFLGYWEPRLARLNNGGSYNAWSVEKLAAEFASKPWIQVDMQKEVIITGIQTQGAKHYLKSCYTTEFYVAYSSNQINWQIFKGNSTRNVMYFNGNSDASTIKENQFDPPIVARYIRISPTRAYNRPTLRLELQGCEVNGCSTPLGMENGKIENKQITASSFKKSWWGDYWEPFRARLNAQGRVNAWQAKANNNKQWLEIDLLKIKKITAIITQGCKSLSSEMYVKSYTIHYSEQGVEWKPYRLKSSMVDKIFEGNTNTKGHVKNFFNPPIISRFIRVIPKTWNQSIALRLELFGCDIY

Sequence of human Factor Xa (P00742 235-488): as the sequence (P00742 235-488) above
Sequence of human Factor Xa (P00742 41-179): as the sequence (P00742 41-179) above

Structure (SMILES) | Ki (human Factor Xa) | Ki (rat Factor Xa) | Ki (human trypsin) | Ki (human thrombin) | Ki (prothrombinase)
COc1ccc(-n2nc(C(N)=O)c3c2C(=O)N(C2CCN(C4CCNC4=O)CC2)CC3)cc1 (single isomer, unassigned) [Example 8a, 1-(4-Methoxyphenyl)-7-oxo-6-(1-(2-oxopyrrolidin-3-yl)piperidin-4-yl)-4,5,6,7-tetrahydro-1H-pyrazolo[3,4-c]pyridine-3-carboxamide] | 0.05 to 1 µM | 0.01 to 0.05 µM | – | – | –
COc1ccc(-n2nc(C(N)=O)c3c2C(=O)N(C2CCN(C4CCNC4=O)CC2)CC3)cc1 (single isomer, unassigned) [Example 8b, 1-(4-Methoxyphenyl)-7-oxo-6-(1-(2-oxopyrrolidin-3-yl)piperidin-4-yl)-4,5,6,7-tetrahydro-1H-pyrazolo[3,4-c]pyridine-3-carboxamide] | ≤ 0.01 µM | 0.01 to 0.05 µM | ≥ 1 µM | ≥ 1 µM | 0.01 to 0.05 µM
COc1ccc(-n2nc(C(F)(F)F)c3c2C(=O)N(C2CCN(N4CCOCC4=O)CC2)CC3)cc1 [Example 1, 4-(4-(1-(4-Methoxyphenyl)-7-oxo-3-(trifluoromethyl)-4,5-dihydro-1H-pyrazolo[3,4-c]pyridin-6(7H)-yl)piperidin-1-yl)morpholin-3-one] | ≤ 0.01 µM | ≤ 0.01 µM | ≥ 1 µM | ≥ 1 µM | ≤ 0.01 µM
COc1ccc(-n2nc(C(F)(F)F)c3c2C(=O)N(C2CCN(N4CCCCC4=O)CC2)CC3)cc1 [Example 2, 1-(4-Methoxyphenyl)-6-(2′-oxo-[1,1′-bipiperidin]-4-yl)-3-(trifluoromethyl)-5,6-dihydro-1H-pyrazolo[3,4-c]pyridin-7(4H)-one] | ≤ 0.01 µM | ≤ 0.01 µM | ≥ 1 µM | ≥ 1 µM | ≤ 0.01 µM
COc1ccc(-n2nc(C(F)(F)F)c3c2C(=O)N(C2CCN(N4CCCC4=O)CC2)CC3)cc1 [Example 3, 1-(4-Methoxyphenyl)-6-(1-(2-oxopyrrolidin-1-yl)piperidin-4-yl)-3-(trifluoromethyl)-5,6-dihydro-1H-pyrazolo[3,4-c]pyridin-7(4H)-one] | ≤ 0.01 µM | ≤ 0.01 µM | ≥ 1 µM | ≥ 1 µM | ≤ 0.01 µM
COc1ccc(-n2nc(C(N)=O)c3c2C(=O)N(C2CCN(N4CCCCC4=O)CC2)CC3)cc1 [Example 4, 1-(4-Methoxyphenyl)-7-oxo-6-(2′-oxo-[1,1′-bipiperidin]-4-yl)-4,5,6,7-tetrahydro-1H-pyrazolo[3,4-c]pyridine-3-carboxamide] | ≤ 0.01 µM | 0.01 to 0.05 µM | ≥ 1 µM | ≥ 1 µM | ≤ 0.01 µM
COc1ccc(-n2nc(C#N)c3c2C(=O)N(C2CCN(N4CCCCC4=O)CC2)CC3)cc1 [Example 5, 1-(4-Methoxyphenyl)-7-oxo-6-(2′-oxo-[1,1′-bipiperidin]-4-yl)-4,5,6,7-tetrahydro-1H-pyrazolo[3,4-c]pyridine-3-carbonitrile] | 0.01 to 0.05 µM | 0.01 to 0.05 µM | ≥ 1 µM | ≥ 1 µM | ≤ 0.01 µM
COc1ccc(-n2nc(/C(N)=N\C#N)c3c2C(=O)N(C2CCN(N4CCCCC4=O)CC2)CC3)cc1 [Example 6, N′-Cyano-1-(4-methoxyphenyl)-7-oxo-6-(2′-oxo-[1,1′-bipiperidin]-4-yl)-4,5,6,7-tetrahydro-1H-pyrazolo[3,4-c]pyridine-3-carboximidamide] | ≤ 0.01 µM | 0.01 to 0.05 µM | ≥ 1 µM | ≥ 1 µM | ≤ 0.01 µM
COc1ccc(-n2nc(C(N)=O)c3c2C(=O)N(C2CCN(N4CCOCC4=O)CC2)CC3)cc1 [Example 7, 1-(4-Methoxyphenyl)-7-oxo-6-(1-(3-oxomorpholino)piperidin-4-yl)-4,5,6,7-tetrahydro-1H-pyrazolo[3,4-c]pyridine-3-carboxamide] | ≤ 0.01 µM | 0.01 to 0.05 µM | ≥ 1 µM | ≥ 1 µM | ≤ 0.01 µM
NC(=O)c1nn(-c2ccc(Cl)cc2)c2c1CCN(C1CCN(N3CCOCC3=O)CC1)C2=O [Example 9, 1-(4-Chlorophenyl)-7-oxo-6-(1-(3-oxomorpholino)piperidin-4-yl)-4,5,6,7-tetrahydro-1H-pyrazolo[3,4-c]pyridine-3-carboxamide] | 0.01 to 0.05 µM | – | – | – | –
NC(=O)c1nn(-c2ccc(OC(F)(F)F)cc2)c2c1CCN(C1CCN(N3CCOCC3=O)CC1)C2=O [Example 10, 7-Oxo-6-(1-(3-oxomorpholino)piperidin-4-yl)-1-(4-(trifluoromethoxy)phenyl)-4,5,6,7-tetr a hydro-1H-pyrazolo[3,4-c]pyridine-3-carboxamide] | ≤ 0.01 µM | 0.05 to 1 µM | ≥ 1 µM | ≥ 1 µM | 0.05 to 1 µM
NC(=O)c1nn(-c2ccc(OC(F)F)cc2)c2c1CCN(C1CCN(N3CCOCC3=O)CC1)C2=O [Example 11, 1-(4-(Difluoromethoxy)phenyl)-7-oxo-6-(1-(3-oxomorpholino)piperidin-4-yl)-4,5,6,7-tetra hydro-1H-pyrazolo[3,4-c]pyridine-3-carboxamide] | ≤ 0.01 µM | 0.01 to 0.05 µM | ≥ 1 µM | ≥ 1 µM | ≤ 0.01 µM
COc1ccc(-n2nc(C(N)=O)c3c2C(=O)N(C2C4CN(N5CCCCC5=O)CC42)CC3)cc1 (stereo not drawn) [Example 12, 1-(4-Methoxyphenyl)-7-oxo-6-(3-(2-oxopiperidin-1-yl)-3-azabicyclo[3.1.0]hexan-6-yl)-4,5,6,7-tetrahydro-1H-pyrazolo[3,4-c]pyridine-3-carboxamide] | 0.01 to 0.05 µM | – | – | – | –
COc1ccc(-n2nc(C(N)=O)c3c2C(=O)N(C2C4CN(N5CCOCC5=O)CC42)CC3)cc1 (stereo not drawn) [Example 13, 1-(4-Methoxyphenyl)-7-oxo-6-(3-(3-oxomorpholino)-3-azabicyclo[3.1.0]hexan-6-yl)-4,5,6,7-tetrahydro-1H-pyrazolo[3,4-c]pyridine-3-carboxamide] | 0.01 to 0.05 µM | – | – | – | –
COc1ccc(-n2nc(C(N)=O)cc2C(=O)NC2CCN(N3CCOCC3=O)CC2)cc1 [Example 15, 1-(4-Methoxyphenyl)-N^5-(1-(3-oxomorpholino)piperidin-4-yl)-1H-pyrazole-3,5-dicarboxamide] | 0.01 to 0.05 µM | – | – | – | 0.01 to 0.05 µM
COc1ccc(-n2nc(C(N)=O)cc2C(=O)N(C)C2CCN(N3CCOCC3=O)CC2)cc1 [Example 16, 1-(4-Methoxyphenyl)-N^5-methyl-N^5-(1-(3-oxomorpholino)piperidin-4-yl)-1H-pyrazole-3,5-dicarboxamide] | 0.05 to 1 µM | – | – | – | –
CCN(C(=O)c1cc(C(N)=O)nn1-c1ccc(OC)cc1)C1CCN(N2CCOCC2=O)CC1 [Example 17, N^5-Ethyl-1-(4-methoxyphenyl)-N^5-(1-(3-oxomorpholino)piperidin-4-yl)-1H-pyrazole-3,5-dicarboxamide] | 0.05 to 1 µM | – | – | – | –
COc1ccc(-n2nc(C(N)=O)cc2C(=O)N(C2CC2)C2CCN(N3CCOCC3=O)CC2)cc1 [Example 18, N^5-Cyclopropyl-1-(4-methoxyphenyl)-N^5-(1-(3-oxomorpholino)piperidin-4-yl)-1H-pyrazole-3,5-dicarboxamide] | 0.05 to 1 µM | – | – | – | –
COc1ccc(-n2nc(C(N)=O)cc2C(=O)NC2CCN(N3CCOCC3=O)C2)cc1 (stereo not drawn) [Example 19, 1-(4-Methoxyphenyl)-N^5-(1-(3-oxomorpholino)pyrrolidin-3-yl)-1H-pyrazole-3,5-dicarboxamide] | 0.05 to 1 µM | – | – | – | –
NC(=O)c1cc(C(=O)NC2CCN(N3CCOCC3=O)CC2)n(C2CCOCC2)n1 [Example 20, N^5-(1-(3-Oxomorpholino)piperidin-4-yl)-1-(tetrahydro-2H-pyran-4-yl)-1H-pyrazole-3,5-dicarboxamide] | 0.01 to 0.05 µM | – | – | – | –
CS(=O)(=O)N1CCC(n2nc(C(N)=O)cc2C(=O)NC2CCN(N3CCOCC3=O)CC2)CC1 [Example 21, 1-(1-(Methylsulfonyl)piperidin-4-yl)-N^5-(1-(3-oxomorpholino)piperidin-4-yl)-1H-pyrazole-3,5-dicarboxamide] | 0.05 to 1 µM | – | – | – | –
COC1CCC(n2nc(C(N)=O)cc2C(=O)NC2CCN(N3CCOCC3=O)CC2)CC1 (stereo not drawn) [Example 22, 1-(4-Methoxycyclohexyl)-N^5-(1-(3-oxomorpholino)piperidin-4-yl)-1H-pyrazole-3,5-dicarboxamide] | 0.05 to 1 µM | – | – | – | –
N#Cc1cc(-n2nc(C(F)(F)F)c3c2C(=O)N(C2CCN(N4CCOCC4=O)CC2)CC3)ccc1F [Example 25, 2-Fluoro-5-(7-oxo-6-(1-(3-oxomorpholino)piperidin-4-yl)-3-(trifluoromethyl)-4,5,6,7-tetra hydro-1H-pyrazolo[3,4-c]pyridin-1-yl)benzonitrile] | 0.05 to 1 µM | – | – | – | –
N#Cc1cccc(-n2nc(C(F)(F)F)c3c2C(=O)N(C2CCN(N4CCOCC4=O)CC2)CC3)c1 [Example 27, 3-(7-Oxo-6-(1-(3-oxomorpholino)piperidin-4-yl)-3-(trifluoromethyl)-4,5,6,7-tetrahydro-1H-pyrazolo[3,4-c]pyridin-1-yl)benzonitrile] | 0.01 to 0.05 µM | – | – | – | –
N#Cc1cc(-n2nc(C(F)(F)F)c3c2C(=O)N(C2CCN(N4CCOCC4=O)CC2)CC3)ccc1OC(F)F [Example 30, 2-(Difluoromethoxy)-5-(7-oxo-6-(1-(3-oxomorpholino)piperidin-4-yl)-3-(trifluoromethyl)-4,5,6,7-tetrahydro-1H-pyrazolo[3,4-c]pyridin-1-yl)benzonitrile] | 0.05 to 1 µM | – | – | – | –
NC(=O)c1cc(-n2nc(C(F)(F)F)c3c2C(=O)N(C2CCN(N4CCOCC4=O)CC2)CC3)ccc1F [Example 32, 2-Fluoro-5-(7-oxo-6-(1-(3-oxomorpholino)piperidin-4-yl)-3-(trifluoromethyl)-4,5,6,7-tetra hydro-1H-pyrazolo[3,4-c]pyridin-1-yl)benzamide] | 0.05 to 1 µM | – | – | – | –
NC(=O)c1cc(-n2nc(C(F)(F)F)c3c2C(=O)N(C2CCN(N4CCOCC4=O)CC2)CC3)ccc1OC(F)F [Example 33, 2-(Difluoromethoxy)-5-(7-oxo-6-(1-(3-oxomorpholino)piperidin-4-yl)-3-(trifluoromethyl)-4,5,6,7-tetrahydro-1H-pyrazolo[3,4-c]pyridin-1-yl)benzamide] | 0.05 to 1 µM | – | – | – | –
